This note sets out measurements from US9718835B2 (China Medical University Hospital, priority 2013, dated 2017).

Assay type in all cases: cell-based, human
The test system of one data set is A-549 (lung carcinoma). Description: Sulforhodamine B cytotoxicity assay, A-549. As to conditions: Table 1; 72 h; average ± SD. The text has this: (§1) The human tumor cell lines used in this manuscript were A-549 (lung carcinoma), MDA-MB-231 (triple-negative breast cancer), DU-145 (hormone-insensitive prostate cancer), KB (originally isolated from epidermoid carcinoma of the nasopharynx), KBvin (vincristine-resistant KB subline), and HCT116 (colorectal adenocarcinoma). These cell lines were obtained from the Lineberger Comprehensive Cancer Center (UNC-CH) or from ATCC (Manassas, Va.), except KBvin, which was a generous gift of Professor Y.-C. Cheng (Yale University). All cell lines were maintained and assayed in RPMI-1640 medium containing 2 mM L-glutamine and 25 mM HEPES (HyClone), supplemented with 10% heat-inactivated fetal bovine serum (HyClone), 100 μg/mL streptomycin, 100 IU/mL penicillin, and 0.25 μg/mL amphotericin B (Cellgro) in a humidified atmosphere containing 5% CO2 in air. […] The 4-6×10^3 cells/well were cultured for 72 h with various concentrations of test compounds in 96-well plate at 37° C. […] Each assay was performed in triplicate with duplicated samples.

The test system of data set [1] is DU-145 (hormone-insensitive prostate cancer). The experiment in a line: Sulforhodamine B cytotoxicity assay, DU-145. The note with it: Table 1; 72 h; average ± SD. Here is the method: (§2) The 12 novel 1-derivatives 9a-l were evaluated for in vitro antiproliferative activity against four human tumor cell lines, KB (nasopharyngeal), A-549 (lung), DU-145 (prostate), and KBvin (MDR KB subline), by using a sulforhodamine B colorimetric assay with triplicate experiments.^30 Compounds 1 and 3 were used as controls.
(§3) The human tumor cell lines used in this manuscript were A-549 (lung carcinoma), MDA-MB-231 (triple-negative breast cancer), DU-145 (hormone-insensitive prostate cancer), KB (originally isolated from epidermoid carcinoma of the nasopharynx), KBvin (vincristine-resistant KB subline), and HCT116 (colorectal adenocarcinoma). These cell lines were obtained from the Lineberger Comprehensive Cancer Center (UNC-CH) or from ATCC (Manassas, Va.), except KBvin, which was a generous gift of Professor Y.-C. Cheng (Yale University). All cell lines were maintained and assayed in RPMI-1640 medium containing 2 mM L-glutamine and 25 mM HEPES (HyClone), supplemented with 10% heat-inactivated fetal bovine serum (HyClone), 100 μg/mL streptomycin, 100 IU/mL penicillin, and 0.25 μg/mL amphotericin B (Cellgro) in a humidified atmosphere containing 5% CO2 in air. Compound stock solutions were prepared at 10 mM in DMSO and diluted with culture medium with the final DMSO concentration ≦0.01% (v/v), a concentration without effect on cell growth. The 4-6×10^3 cells/well were cultured for 72 h with various concentrations of test compounds in 96-well plate at 37° C. […] Each assay was performed in triplicate with duplicated samples.

The test system of data set [2] is KB (epidermoid carcinoma of the nasopharynx). The experiment in a line: Sulforhodamine B cytotoxicity assay, KB. As to conditions: Table 1; 72 h; average ± SD; read-out: IC50 KB. Here is the method: as §2, §3
Data set [3] has as its system KBvin (vincristine-resistant KB subline). Description: Sulforhodamine B cytotoxicity assay, KBvin. As to conditions: Table 1; 72 h; average ± SD; read-out: IC50 KBvin.
From the text: as §1

In data set [4] the test system is MDA-MB-468 (Breast cancer). Description: cells.
For another data set, the system named is SKOV3 (Ovary cancer). Description: cells.
The test system of the next data set is HCT 116 (Colon cancer). The experiment in a line: cells.
A further data set relates to A549 (Lung cancer). The experiment in a line: cells.
The mark [5] stands for this setting: Homo sapiens, MDA-MB-468, Table 6, read-out: In vitro cytotoxicity MDA-MB-468 (Breast cancer).
[6] abbreviates: Homo sapiens, SK-OV-3, Table 6, read-out: In vitro cytotoxicity SKOV3 (Ovary cancer).
The mark [7] stands for this setting: Homo sapiens, HCT-116, Table 6, read-out: In vitro cytotoxicity HCT 116 (Colon cancer).
The mark [8] stands for this setting: Homo sapiens, A549, Table 6, read-out: In vitro cytotoxicity A549 (Lung cancer).

Where two headings read alike, the source gives them in different places.

Regarding `CC[C@@]1(OC(=O)C(Cc2ccccc2)NC(CCO)=NS(=O)(=O)c2ccc(C)cc2)C(=O)OCc2c1cc1n(c2=O)Cc2cc3ccccc3nc2-1` (some centres unmarked) [Compound 9l], the IC50 in the data set with A-549 (lung carcinoma) amounted to 83 ± 10 nM; in data set [1] it was 200 ± 13 nM; in data set [2] it was 310 ± 21 nM; in data set [3] it was 140 ± 8.1 nM.
With `CC[C@@]1(OC(=O)C(C)NC(Cc2ccc(OC)cc2)=NS(=O)(=O)c2ccc(C)cc2)C(=O)OCc2c1cc1n(c2=O)Cc2cc3ccccc3nc2-1` (some centres unmarked) [Compound 9c], the IC50 in the data set on A-549 (lung carcinoma) was determined as 89 ± 8.3 nM; in data set [1], 140 ± 5.9 nM; in data set [2], 910 ± 60 nM; in data set [3] it was 87 ± 8.7 nM.
For the compound `CCc1c2c(nc3ccccc13)-c1cc3c(c(=O)n1C2)COC(=O)[C@@]3(CC)OC(=O)CNC(Cc1ccc(OC)cc1)=NS(=O)(=O)c1ccc(C)cc1` [Wcpt-03], the IC50 in data set [4] (Table 6, read-out: In vitro cytotoxicity MDA-MB-468 (Breast cancer)) stood at 17.7 ± 3.2 nM; in the data set on SKOV3 (Ovary cancer) (Table 6, read-out: In vitro cytotoxicity SKOV3 (Ovary cancer)), 8.08 ± 1.67 nM; with HCT 116 (Colon cancer) (Table 6, read-out: In vitro cytotoxicity HCT 116 (Colon cancer)), 208 ± 4.79 nM; in the data set with A549 (Lung cancer) (Table 6, read-out: In vitro cytotoxicity A549 (Lung cancer)), 48.3 ± 1.72 nM.
In the case of `CC[C@@]1(OC(=O)C(NC(Cc2ccc(OC)cc2)=NS(=O)(=O)c2ccc(C)cc2)C(C)C)C(=O)OCc2c1cc1n(c2=O)Cc2cc3ccccc3nc2-1` (some centres unmarked) [Compound 9e], the IC50 in the data set with A-549 (lung carcinoma) was 1000 ± 110 nM; in data set [1], 1700 ± 140 nM; in data set [2], 11000 ± 480 nM; in data set [3] it was 1500 ± 110 nM.
In the case of `CC[C@@]1(OC(=O)CNC(Cc2ccc(OC)cc2)=NS(=O)(=O)c2ccc(C)cc2)C(=O)OCc2c1cc1n(c2=O)Cc2cc3c(CN4CCN(C)CC4)c(O)ccc3nc2-1` [#9], the IC50 in data set [4] (setting [5]) came to 871 ± 44.9 nM; with SKOV3 (Ovary cancer) (setting [6]), 1700 ± 279 nM; in the data set with HCT 116 (Colon cancer) (setting [7]) it was 458 ± 46.3 nM; in the data set on A549 (Lung cancer) (setting [8]), 13200 ± 1090 nM.
As to `CC[C@@]1(OC(=O)C(CC(C)C)NC(Cc2ccc(OC)cc2)=NS(=O)(=O)c2ccc(C)cc2)C(=O)OCc2c1cc1n(c2=O)Cc2cc3ccccc3nc2-1` (some centres unmarked) [Compound 9g], the IC50 amounted to 950 ± 18 nM in the data set with A-549 (lung carcinoma), 1600 ± 96 nM in data set [1], 2700 ± 8.3 nM in data set [2] and 1000 ± 130 nM in data set [3].
On to `CCc1c2c(nc3ccc(OC(=O)N4CCC(N5CCCCC5)CC4)cc13)-c1cc3c(c(=O)n1C2)COC(=O)[C@@]3(CC)OC(=O)CNC(Cc1ccc(OC)cc1)=NS(=O)(=O)c1ccc(C)cc1` [Compound Wcpt-39], for which the IC50 in data set [4] (Homo sapiens, MDA-MB-468, read-out: In vitro cytotoxicity MDA-MB-468 (Breast cancer)) stood at 6640 ± 497 nM; in the data set on SKOV3 (Ovary cancer) (Homo sapiens, SK-OV-3, read-out: In vitro cytotoxicity SKOV3 (Ovary cancer)), 4380 ± 674 nM; in the data set with HCT 116 (Colon cancer) (Homo sapiens, HCT-116, read-out: In vitro cytotoxicity HCT 116 (Colon cancer)), 12500 ± 445 nM; with A549 (Lung cancer) (Homo sapiens, A549, read-out: In vitro cytotoxicity A549 (Lung cancer)), 30700 ± 2120 nM.
For the compound `CC[C@@]1(OC(=O)C(C)NC(Cc2ccccc2)=NS(=O)(=O)c2ccc(C)cc2)C(=O)OCc2c1cc1n(c2=O)Cc2cc3ccccc3nc2-1` (some centres unmarked) [Compound 9d], the IC50 in the data set with A-549 (lung carcinoma) is 71 ± 6.9 nM; in data set [1], 150 ± 22 nM; in data set [2], 220 ± 17 nM; in data set [3] it was 96 ± 9.4 nM.
As for `CCc1c2c(nc3ccc(O)cc13)-c1cc3c(c(=O)n1C2)COC(=O)[C@@]3(CC)OC(=O)CNC(Cc1ccc(OC)cc1)=NS(=O)(=O)c1ccc(C)cc1` [Compound Wcpt-37], the IC50 is 7.54 ± 4.07 nM in data set [4] (setting [5]), 11.6 ± 4.08 nM with SKOV3 (Ovary cancer) (setting [6]), 55.8 ± 2.05 nM in the data set on HCT 116 (Colon cancer) (setting [7]) and 121 ± 15.8 nM in the data set on A549 (Lung cancer) (setting [8]).
Turning to `CCC(C)C(NC(Cc1ccc(OC)cc1)=NS(=O)(=O)c1ccc(C)cc1)C(=O)O[C@]1(CC)C(=O)OCc2c1cc1n(c2=O)Cc2cc3ccccc3nc2-1` (some centres unmarked) [Compound 9i], the IC50 amounted to 1200 ± 66 nM in the data set with A-549 (lung carcinoma), 8300 ± 140 nM in data set [1], 9600 ± 42 nM in data set [2] and 1700 ± 160 nM in data set [3].
`CC[C@@]1(OC(=O)CNC(Cc2ccccc2)=NS(=O)(=O)c2ccc(C)cc2)C(=O)OCc2c1cc1n(c2=O)Cc2cc3ccccc3nc2-1` [Compound 9b]: the IC50 turned out to be 57 ± 3.9 nM with A-549 (lung carcinoma), 130 ± 11 nM in data set [1], 180 ± 0.8 nM in data set [2] and 100 ± 7.3 nM in data set [3].
Consider `CC[C@@]1(OC(=O)C(NC(Cc2ccccc2)=NS(=O)(=O)c2ccc(C)cc2)C(C)C)C(=O)OCc2c1cc1n(c2=O)Cc2cc3ccccc3nc2-1` (some centres unmarked) [Compound 9f], for which the IC50 came out at 1300 ± 120 nM in the data set on A-549 (lung carcinoma), 2000 ± 250 nM in data set [1], 11000 ± 280 nM in data set [2] and 2200 ± 56 nM in data set [3].
With `CC[C@@]1(OC(=O)C(Cc2ccccc2)NC(Cc2ccc(OC)cc2)=NS(=O)(=O)c2ccc(C)cc2)C(=O)OCc2c1cc1n(c2=O)Cc2cc3ccccc3nc2-1` (some centres unmarked) [Compound 9k], the IC50 in the data set on A-549 (lung carcinoma) worked out at 120 ± 10 nM; in data set [1] it was 220 ± 25 nM; in data set [2], 850 ± 24 nM; in data set [3], 120 ± 1.9 nM.
For the compound `CC[C@@]1(OC(=O)CNC(Cc2ccc(F)cc2)=NS(=O)(=O)c2ccc(C)cc2)C(=O)OCc2c1cc1n(c2=O)Cc2cc3ccccc3nc2-1` [#11], the IC50 in data set [4] (setting [5]) is 49.7 ± 6.53 nM; in the data set on SKOV3 (Ovary cancer) (setting [6]), 31.1 ± 6.05 nM; with HCT 116 (Colon cancer) (setting [7]) it was 71.9 ± 2.59 nM; in the data set with A549 (Lung cancer) (setting [8]) it was 123 ± 9.1 nM.
With `CCC(C)C(NC(Cc1ccccc1)=NS(=O)(=O)c1ccc(C)cc1)C(=O)O[C@]1(CC)C(=O)OCc2c1cc1n(c2=O)Cc2cc3ccccc3nc2-1` (some centres unmarked) [Compound 9j], the IC50 in the data set on A-549 (lung carcinoma) was found to be 6500 ± 430 nM; in data set [1], 11000 ± 750 nM; in data set [2] it was 11000 ± 1000 nM; in data set [3] it was 8200 ± 610 nM.
On to `CC[C@@]1(OC(=O)CNC(Cc2ccc(OC)cc2)=NS(=O)(=O)c2ccc(C)cc2)C(=O)OCc2c1cc1n(c2=O)C(C)c2cc3ccccc3nc2-1` (some centres unmarked) [#10], for which the IC50 was 1650 ± 90.8 nM in data set [4] (setting [5]), 132 ± 24.2 nM in the data set on SKOV3 (Ovary cancer) (setting [6]), 2090 ± 96.1 nM in the data set on HCT 116 (Colon cancer) (setting [7]) and 2810 ± 416 nM with A549 (Lung cancer) (setting [8]).
Turning to `CC[C@@]1(OC(=O)C(CC(C)C)NC(Cc2ccccc2)=NS(=O)(=O)c2ccc(C)cc2)C(=O)OCc2c1cc1n(c2=O)Cc2cc3ccccc3nc2-1` (some centres unmarked) [Compound 9h], the IC50 with A-549 (lung carcinoma) is 890 ± 39 nM; in data set [1], 1100 ± 16 nM; in data set [2], 4400 ± 420 nM; in data set [3] it was 1800 ± 30 nM.
